Source: patent US20160346289A1, “Fixed-Dose Combinations of Antiviral Compounds” (MERCK SHARP & DOHME CORP., priority 2014, published 2016)

Columns and labels:
[1] = Aqueous / pH-dependent solubility; assay type: physicochemical; details: between pH 1-3
[2] = Human pharmacokinetics of Formulation 4 with and without famotidine, co-dosed with Formulation 1; assay type: in vivo; details: Compound II from Formulation 4 co-dosed with Formulation 1; healthy subjects
Experimental: For the treatment with famotidine, single oral doses of 20 mg famotidine (1×20 mg tablet) was administered 10 hours and 2 hours prior to an oral dose of Formulation 1 and Formulation 4.

[3] = Human pharmacokinetics of Formulation 3 with and without 20 mg famotidine; assay type: in vivo; details: conventional formulation of Compound II
Experimental: The oral absorption obtained from Formulation 3 with and without pH-modifying medications (20 mg famotidine) was evaluated as part of human clinical study. For the treatment with famotidine, single oral doses of 20 mg famotidine (1×20 mg tablet) were administered on the previous evening and 2 hours prior to a single oral dose of Formulation 3.

pH-dependent solubility profile [1]: sharp pH-dependent solubility profile
exposure following famotidine versus without famotidine [2]: comparable
absorption upon co-administration with a pH-raising medication [3]: poor absorption
SMILES: COC(=O)N[C@H](C(=O)N1CCC[C@H]1c1nc(-c2ccc3c(c2)O[C@@H](c2ccccc2)n2c-3cc3cc(-c4c[nH]c([C@@H]5CCCN5C(=O)[C@@H](NC(=O)OC)C(C)C)n4)ccc32)c[nH]1)C(C)C [Compound II, dimethyl N,N′-([(6S)-6-phenylindolo[1,2-c][1,3]benzoxazine-3,10-diyl]bis{1H-imidazole-5,2-diyl-(2S)-pyrrolidine-2,1-diyl[(2S)-3-methyl-1-oxobutane-1,2-diyl]})dicarbamate]
